Tested on: dithiothreitol-insensitive PAF choline phosphotransferase (PAF-CPT)
Assay: PAF-CPT activity assay on leukocyte homogenate
Assay type: biochemical
Conditions: rabbit leukocyte homogenate; Figure 8
Protocol: The experiment on the inhibitory effect of each compound of interest against the washed rabbit platelets (WRPs) aggregation was carried out as per the already described method. The platelets were from male New Zealand white rabbits (about 20), individually housed in stainless steel cages in an air-conditioned room (19 ± 1 °C, 55 ± 5% humidity on a 12/12 h artificial light/dark cycle). Blood samples were drawn from the main ear artery. Microliters of PAF in a final concentration of about 10^–10 M were added to the cuvette of the aggregometer, and the height of the platelet aggregation was monitored. […] Dithiothreitol-insensitive PAF choline phosphotransferase, lyso-PAF:acetyl-CoA acetyltransferase and PAF-acetylhydrolase activity assays were performed on the homogenates of rabbit leukocytes while the activity of lipoprotein-associated phospholipase A2 was assessed on plasma as previously described. […] All results were expressed as mean ± standard deviation (SD). […] Data were analyzed using a statistical software package (SPSS for Windows, 16.0, 2007, SPSS Inc., Chicago, IL, USA) and Microsoft Excel 2007. […]

[Fe(pqx)Cl2]2 [Complex 6]
inhibition of the specific activity of PAF-CPT: inhibit, in a dose-dependent way

Source: publication PMC10574351, “First-Row Transition Metal Complexes Incorporating the 2-(2′-pyridyl)quinoxaline Ligand (pqx), as Potent Inflammatory Mediators: Cytotoxic Properties and Biological Activities against the Platelet-Activating Factor (PAF) and Thrombin” (Molecules, 2023)
